Columns and labels:
Assay type in all cases: cell-based
[1] = test system: spleen of an apoaequorin transgenic mouse; assay: Intracellular calcium (aequorin luminescence) in spleen pieces of apoaequorin transgenic mouse
Experimental: (§1) In order to evaluate physiological activities of the peptides prepared in Example 1, the prepared peptides were allowed to act upon organs excised from the living body, and changes in the concentration of an intracellular signal transduction substance in cells constituting the organs were measured.
(§2) In order to measure changes in the concentration of an intracellular signal transduction substance in cells constituting the organs, a transgenic mouse prepared by integrated an apoaequorin gene expression vector into a chromosome was used. Specifically, a female mouse derived from the transgenic mouse disclosed in Reference Example 4 as an individual number 98075-04-6 was used in the test. The transgenic mouse was prepared and reared as an SPF animal in a clean room, and was not contaminated with pathogens including mouse hepatitis virus, Sendai virus, mycoplasma and Tyzzer bacterium.
(§3) Aequorin is a bioluminescent protein complex which is present in the umbrella region of luminescent Aequorea victoria. Aequorin is constituted from its protein moiety apoaequorin, its luminescence substrate coelent razin and molecular oxygen, and emits light by its binding with calcium ion. Since expression of the apoaequorin protein has been confirmed in at least thymus, spleen, abdominal muscle, diaphragm, kidney, crystalline lens, pancreas, fat tissue, liver, skull, blood vessel, ovary, womb and adrenal gland of the transgenic mouse used in the test, it was able to monitor changes in the intracellular calcium ion concentration in these organs with a high sensitivity.
(§4) Organs were prepared from offsprings borne from the female of individual number 98075-04-6 to examine the activities of the peptides produced in Example 1. After the offsprings were killed, the thymus, spleen, abdominal muscle, diaphragm, kidney, crystalline lens, pancreas, fat tissue, liver, skull, blood vessel, ovary, womb and adrenal gland were excised. Each of the excised organs was cut into small cubes of about 1 to 2 mm square in PBS containing 10 units/ml of heparin sodium and thoroughly washed by changing the solution. Next, three pieces of each of the organ samples thus prepared were put into a 5 ml capacity tube (Rohren-Tubes; No. 55.476, manufactured by Sarstedt) which had been charged with RPMI 1640 medium containing 200 μl of 10 μmol/l coelenterazine (manufactured by Molecular Probes), and cultured at 37° C. for 5 hours. Five hours after, various substances shown below dissolved in RPMI 1640 medium were added at 200 μl, and the luminescence was measured just after the addition at 1 second intervals using a luminometer AutoLumat LB953 (manufactured by BERTHOLD).
Organs were prepared from offsprings borne from the female of individual number 98075-04-6 to examine the activities of the peptides produced in Example 1. After the offsprings were killed, the spleen was excised. The excised spleen was cut into small cubes of about 1 to 2 mm square in PBS containing 10 units/ml of heparin sodium and thoroughly washed by changing the solution. Next, three pieces of the prepared spleen sample were put into a 5 ml capacity tube (Rohren-Tubes; No. 55.476, manufactured by Sarstedt) which had been charged with RPMI 1640 medium containing 200 μl of 10 μmol/l coelenterazine (manufactured by Molecular Probes), and cultured at 37° C. for 5 hours. Five hours after, various substances shown below dissolved in RPMI 1640 medium were added at 200 μl, and the luminescence was measured just after the addition at 1 second intervals using a luminometer AutoLumat LB953 (manufactured by BERTHOLD).
RPMI 1640, a peptide prepared in Example 1 (final concentration: 10 nmol/l), a peptide prepared in Example 1 (final concentration: 100 nmol/l), a peptide prepared in Example 1 (final concentration: 1 μmol/l), a peptide prepared in Example 1 (final concentration; 10 μmol/l), ATP (final concentration: 100 μmol/l), A23187 (final concentration: 1 μmol/l) and Triton X-100 (final concentration: 2%) were added in order. […]

[2] = test system: spleen of an apoaequorin transgenic mouse; assay: as above; conditions: final concentration 8 μmol/l
[3] = test system: skull (cranial bone) of an apoaequorin transgenic mouse; assay: Intracellular calcium (aequorin luminescence) in skull (cranial bone) pieces of apoaequorin transgenic mouse; conditions: final concentration 10 μmol/l
Experimental: as §1, §2, §3, §4

[4] = test system: blood vessel of an apoaequorin transgenic mouse; assay: Intracellular calcium (aequorin luminescence) in blood vessel pieces of apoaequorin transgenic mouse; conditions: final concentration 1 μmol/l
Experimental: as §1, §2, §3, §4

[5] = test system: womb of an apoaequorin transgenic mouse; assay: Intracellular calcium (aequorin luminescence) in womb pieces of apoaequorin transgenic mouse; conditions: final concentration 1 μmol/l
Experimental: as §1
(§5) In order to measure changes in the concentration of an intracellular signal transduction substance in cells constituting the organs, a transgenic mouse prepared by integrated an apoaequorin gene expression vector into a chromosome was used. Specifically, a female mouse derived from the transgenic mouse disclosed in Reference Example 4 as an individual number 98075-04-6 was used in the test. […]
(§6) Aequorin is a bioluminescent protein complex which is present in the umbrella region of luminescent Aequorea victoria. Aequorin is constituted from its protein moiety apoaequorin, its luminescence substrate coelent razin and molecular oxygen, and emits light by its binding with calcium ion. […]
(§7) Organs were prepared from offsprings borne from the female of individual number 98075-04-6 to examine the activities of the peptides produced in Example 1. […] Five hours after, various substances shown below dissolved in RPMI 1640 medium were added at 200 μl, and the luminescence was measured just after the addition at 1 second intervals using a luminometer AutoLumat LB953 (manufactured by BERTHOLD).

[6] = test system: adrenal gland of an apoaequorin transgenic mouse; assay: Intracellular calcium (aequorin luminescence) in adrenal gland pieces of apoaequorin transgenic mouse; conditions: final concentration 1 μmol/l
Experimental: as §1, §5, §6, §7

Row | Substance | final concentration from which concentration-dependent luminescence was observed ([1]; 10 nmol/l, 100 nmol/l, 1 μmol/l, 10 μmol/l added in order) [µmol/L] | luminescence (intracellular calcium increase) ([1]; final concentration 10 μmol/l) | luminescence (intracellular calcium increase) [2] | luminescence (intracellular calcium increase) [3] | luminescence (intracellular calcium increase) [4] | luminescence (intracellular calcium increase) [5] | luminescence (intracellular calcium increase) [6]
1 | H-Met-Met-Glu-Lys-Leu-Gly-Val-Pro-Lys-Thr-His-Leu-Glu-Met-Lys-Lys-Met-Ile-Ser-Glu-Val-Thr-Gly-Gly-Val-Ser-Asp-Thr-Ile-Ser-Tyr-Arg-Asp-Phe-Val-Asn-Met-Met-Leu-NH2 (H-MMEKLGVPKTHLEMKKMISEVTGGVSDTISYRDFVNMML-NH2) [Peptide 3] | 1 | Strong luminescence | Strong luminescence | Strong luminescence |  |  | 
2 | angiotensin II [purchased from Research Biochemicals International (product code: A-151)] |  |  |  |  | Strong luminescence | Strong luminescence | Strong luminescence
